In US9688651B2, “Geranyl geranyl acetone analogs and uses thereof” (NYKEN Holding B.V., priority 2012, dated 2017):

Tests used:
[1] = system: glucose-responsive protein 78 (Grp78); assay: Grp78 mRNA (qPCR, HSF1-independent) in HL-1 cardiomyocytes; format: cell-based, mouse; parameters: key to HSP boosting HL-1 cardiomyocytes mRNA (qPCR) Grp78 Not HSF1: 0 = no induction HSP levels; + = 2-10-fold induction; ++ = 10-30-fold induction; +++ = > 30-fold induction; conditions: for upregulation of Grp78 mRNA: HL-1, mild heat shock, 10 μM, 6 hours; for HSP boosting HL-1 cardiomyocytes mRNA (qPCR) Grp78 Not HSF1: mild heat shock, then compound 10 μM for 6 hours
Method: (§1) HL-1 cardiomyocytes were subjected to a mild heat shock of 44° C. for 10 minutes. After a recovery of 10 minutes (37 degrees 5% CO2), compounds were added in a final concentration of 10 μM (dissolved in DMSO, final concentration 0.1%). To control myocytes, 0.1% DMSO was added. After six hours the cells were lysed in RIPA buffer and used for Western blotting as described previously.^3, 10 Compounds were also screened for their ability to upregulate HSP gene expression. Hereto, HL-1 cardiomyocytes were first subjected to a mild heat shock which activates the Heat Shock Factor. After the mild heat shock, compound (10 μM) was added to the medium of HL-1 cardiomyocytes for 6 hours, followed by determination of HSP70, HSP25, HSP90 and HSP40 which are targets of the heat shock factor 1 (HSF1) transcription factor. In addition, we determined mRNA levels of the gene encoding the glucose-responsive protein 78 (Grp78) which is HSF1-independent.

[2] = system: HSP70, HSP25, HSP90 and HSP40; assay: Upregulation of HSP gene expression (HSF1 targets) in HL-1 cardiomyocytes; format: cell-based, mouse; conditions: HL-1, mild heat shock, 10 μM, 6 hours
Method: as §1

HSP90 = HSP90 mRNA (qPCR) in HL-1 cardiomyocytes after mild heat shock; format: cell-based, mouse; conditions: then compound 10 μM for 6 hours
Method: as §1

HSP70 [3] = assay: HSP70 protein boosting in HL-1 cardiomyocytes after mild heat shock (Western blot); format: cell-based, mouse; conditions: for induction of mammalian HSP70 protein expression: HL-1, mild heat shock, 10 μM, 6 hours; for HSP boosting HL-1 cardiomyocytes Protein HSP70: mild heat shock 44°C 10 min, then compound 10 μM for 6 hours, Western blot
Method: HL-1 atrial myocytes, a cell line derived from adult mouse atria were obtained from Dr. William Claycomb (Louisiana State University, New Orleans, La., USA). The myocytes were maintained in Complete Claycomb Medium (JRH, UK) supplemented with 100 μM norepinephrine stock (consisting of 10 mM norepinephrine (Sigma, The Netherlands) dissolved in 0.3 mM L-ascorbic acid (Sigma)), 4 mM L-glutamine (Gibco, The Netherlands) and 10% FBS (Sigma). The myocytes were cultured in flasks coated with 0.02% gelatin (Sigma), in a 5% CO2 atmosphere at 37° C.
HL-1 cardiomyocytes were subjected to a mild heat shock of 44° C. for 10 minutes. After a recovery of 10 minutes (37 degrees 5% CO2), compounds were added in a final concentration of 10 μM (dissolved in DMSO, final concentration 0.1%). To control myocytes, 0.1% DMSO was added. After six hours the cells were lysed in RIPA buffer and used for Western blotting as described previously.^3, 10
(§2) Western-blot analysis was performed as described previously^3, 10. Equal amount of protein in SDS-PAGE sample buffer was sonicated before separation on 10% PAA-SDS gels. After transfer to nitrocellulose membranes (Stratagene, The Netherlands), membranes were incubated with primary antibodies against HSP25 (Stressgen, The Netherlands, SPA-801, 1:1000), HSP27 (Stressgen, SPA-800, 1:1000), HSP70 (Stressgen, SPA-810, 1:1000), GAPDH (Affinity Reagents, The Netherlands) or PARP (Santa Cruz, The Netherlands, sc-7150, 1:500). Horseradish peroxidase-conjugated anti-mouse or anti-rabbit (Santa-Cruz Biotechnology, The Netherlands) was used as secondary antibody. Signals were detected by the ECL-detection method (Amersham, The Netherlands) and quantified by densitometry using GeneTools software from Syngene (The Netherlands).
Compounds were also screened for HSP70 boosting effects. Hereto, HL-1 cardiomyocytes were first subjected to a mild heat shock which activates the Heat Shock Factor. After the mild heat shock, compound (10 μM) was added to the medium of HL-1 cardiomyocytes for 6 hours, followed by determination of the HSP70 amount.

HSP25 = HSP25 mRNA (qPCR) in HL-1 cardiomyocytes after mild heat shock; format: cell-based, mouse; conditions: then compound 10 μM for 6 hours
Method: as §1

HSP70 [4] = assay: HSP70 mRNA (qPCR) in HL-1 cardiomyocytes after mild heat shock; format: cell-based, mouse; conditions: then compound 10 μM for 6 hours
Method: as §1

HSP40 = HSP40 mRNA (qPCR) in HL-1 cardiomyocytes after mild heat shock; format: cell-based, mouse; conditions: then compound 10 μM for 6 hours
Method: as §1

[5] = system: MCF-7 breast cancer cells; assay: MCF-7 cell death, ratio death/living cells (trypan blue); format: cell-based, human; parameters: key to Cell Death MCF-7 cancer cells Death/living 100 μM: 0 = no dead cells; + = P < 0.05; ++ = P < 0.01; +++ = P < 0.001; conditions: 100 μM; 16-20 hours; trypan blue
Method: MCF-7 breast cancer cells were cultured in DMEM supplemented with 10% FCS. […] Ratio death and living cells was determined by using trypan blue staining of death cells. The cell pellets were lysed in RIPA buffer and used for Western blot analysis.
Since we observed that some compounds aggravate tachypacing-induced contractile dysfunction, we next investigated if these compounds can induce programmed cell death in a human breast cancer cell-line MCF-7. […] In total 28 compounds were tested for cell death. […] GGA was used as a control as well as non-treated MCF-7 cells. […] The findings indicate that GGA-like compounds which aggravate heart failure can induce programmed cell death in MCF-7 breast cancer cell-line.

HSP70 [6] = assay: HSP70 Western blot in MCF-7 cells; format: cell-based, human; parameters: key: + = P < 0.05; ++ = P < 0.01; +++ = P < 0.001; conditions: MCF-7 lysate, 16-20 hours
Method: (§3) MCF-7 breast cancer cells were cultured in DMEM supplemented with 10% FCS. Test compounds were added to the medium in a final concentration of […] for 16-20 hours. Ratio death and living cells was determined by using trypan blue staining of death cells. The cell pellets were lysed in RIPA buffer and used for Western blot analysis.
as §2

PARP = PARP cleavage in MCF-7 cells (Western blot); format: cell-based, human; parameters: key to Cell Death MCF-7 cancer cells PARP: 0 = no dead cells; + = P < 0.05; ++ = P < 0.01; +++ = P < 0.001; conditions: MCF-7 lysate, Western blot, 16-20 hours
Method: as §3, §2
Since we observed that some compounds aggravate tachypacing-induced contractile dysfunction, we next investigated if these compounds can induce programmed cell death in a human breast cancer cell-line MCF-7. Hereto, MCF-7 cells were incubated for 16 hours with 10 μM of a test compound after which the number of death and living cells was determined. In total 28 compounds were tested for cell death. […] GGA was used as a control as well as non-treated MCF-7 cells. […] The findings indicate that GGA-like compounds which aggravate heart failure can induce programmed cell death in MCF-7 breast cancer cell-line.

HSP27 = HSP27 Western blot in MCF-7 cells; format: cell-based, human; conditions: MCF-7 lysate, 16-20 hours
Method: as §3, §2

HSP70 [7] = assay: Hsp70 induction in murine proximal tubule (MPT) cells (Western blot); format: cell-based; conditions: 40 μM, 5 hours, outperformed positive control GGA
Method: Murine proximal tubule (MPT) cells were isolated and cultured as described previously (Borkan et al. Heat stress ameliorates ATP depletion-induced sublethal injury in mouse proximal tubule cells. Am. J. Physiol. 1997; F347-55).
The MPT cells were exposed to 40 μM of compound for 5 hours, after which the cells were harvested in RIPA buffer followed by Western blotting.
For Western-blot analysis, equal amount of protein in SDS-PAGE sample buffer was separated on 10% PAA-SDS gels. After transfer to nitrocellulose membranes (Stratagene, USA), membranes were incubated with primary antibodies against HSP70 (Enzo C92F3A/StressGen SP810) or beta-actin (Sigma A541). Horseradish peroxidase-conjugated anti-mouse or anti-sheep (Jackson ImmunoRes) was used as secondary antibody. Signals were detected by the ECL-detection method (Amersham).

Structure (SMILES) | upregulation of Grp78 mRNA [1] | HSP boosting HL-1 cardiomyocytes mRNA (qPCR) Grp78 Not HSF1 [1] | induction of HSP gene expression [2] | HSP boosting HL-1 cardiomyocytes mRNA (qPCR) HSP 90 (HSP90) | induction of mammalian HSP70 protein expression (HSP70 [3]) | HSP boosting HL-1 cardiomyocytes mRNA (qPCR) HSP 25 (HSP25) | HSP boosting HL-1 cardiomyocytes mRNA (qPCR) HSP 70 (HSP70 [4]) | HSP boosting HL-1 cardiomyocytes mRNA (qPCR) HSP 40 (HSP40) | Cell Death MCF-7 cancer cells Death/living 100 μM [5] | Cell Death MCF-7 cancer cells HSP 70 (HSP70 [6]) | Cell Death MCF-7 cancer cells PARP (PARP) | Cell Death MCF-7 cancer cells HSP 27 (HSP27) | induction of HSP70 expression in renal (MPT) cells (HSP70 [7]) | HSP boosting HL-1 cardiomyocytes Protein HSP70 (HSP70 [3])
CCOC(=O)C(Cc1ccccc1)C(=O)CC/C=C(\C)CCC=C(C)C (stereo not drawn) [Compound 23] | no upregulation | 0 | strong inducers | + (+ = 2-10-fold induction) | potent inducers | + (+ = 2-10-fold induction) | ++ (++ = 10-30-fold induction) | + (+ = 2-10-fold induction) | – | – | – | – | – | –
CC(=O)CC(=O)CC/C=C(\C)CCC=C(C)C [Compound 28, (E)-8,12-Dimethyltrideca-7,11-Diene-2,4-Dione] | no upregulation | 0 | strong inducers | + (+ = 2-10-fold induction) | potent inducers | + (+ = 2-10-fold induction) | + (+ = 2-10-fold induction) | + (+ = 2-10-fold induction) | 0 | 0 | 0 | ++ (++ = P < 0.01) | – | –
CC(C)=CCC/C(C)=C/CNC(=O)CCC(=O)O [Compound 46] | no upregulation | 0 | strong inducers | ++ (++ = 10-30-fold induction) | potent inducers | ++ (++ = 10-30-fold induction) | + (+ = 2-10-fold induction) | + (+ = 2-10-fold induction) | – | – | – | – | strong inducers | ++ (++ = 10-30-fold induction)
CC(C)=CCC/C(C)=C/CNS(=O)(=O)C(F)(F)F [Compound 52] | no upregulation | 0 | strong inducers | + (+ = 2-10-fold induction) | potent inducers | + (+ = 2-10-fold induction) | + (+ = 2-10-fold induction) | + (+ = 2-10-fold induction) | – | – | – | – | strong inducers | –
CCOC(=O)C(C)(C)C(=O)CC/C=C(\C)CCC=C(C)C [Compound 76, (E)-ethyl 2,2,7,11-tetramethyl-3-oxododeca-6,10-dienoate] | no upregulation | 0 | strong inducers | ++ (++ = 10-30-fold induction) | potent inducers | ++ (++ = 10-30-fold induction) | +++ (+++ = > 30-fold induction) | + (+ = 2-10-fold induction) | – | – | – | – | – | +++ (+++ = > 30-fold induction)
